The molecules below were run on HT-29 cells (assay: HT-29 cell necrosis/necroptosis inhibition (TNF-α + SMAC mimetic + zVAD-FMK; CellTiter-Glo cell viability)). Conditions: Homo sapiens; HT-29 cells, TNF-α 10 ng/ml + SMAC mimetic 6 μM + zVAD-FMK 10 μM, 20 hours; geometric mean, 10 points in duplicate; read-out: EC50 (Cell activity; Necrosis/Necroptosis Inhibitory Activity, Compounds 1-142).
Format: cell-based
Procedure: Compounds 1-319 (denoted as Compound Nos. 1 through 319 in Table 3 and 4) of the disclosure were tested for binding and cellular RIP1 inhibitory activity following the experimental procedures described below.
• Cell line: HT-29 (ATCC® HTB-38™) • Culture medium: McCOY's 5A, Gibco, Cat No. 16600-082 • FBS, Gibco, Cat No. 10099-141C • Trypsin: Gibco, Cat No. 25200-056 • DMSO: Sigma, Cat No. 67-68-5, 1L • Assay plate: Corning #3903 • Compound dilution plate: Corning #3357 • Inducers: TNFα, GenScript, Cat No. Z01001-50, • SmacM, Cat. No., HY-15989, MedChemExpress (MCE) • Z_VAD FMK, TargetMol, T6013 • Cell Titer-Glo® Luminescent Cell Viability Assay Kit: Promega, Cat No. G7573 • EnVision: PerkinElmer, 2105-0010 Methods Cell Seeding
1. HT-29 cells were checked every day to make sure that they were healthy and growing as expected. They were subjected to sub-culturing when they were approximately 80% confluent.
2. The culture medium, McCOY's 5A medium (Gibco, Cat No. 16600-082) with 10% fetal bovine serum or FBS (Gibco, Cat No. 10099-141C), was pre-warmed in a 37° C. water bath for at least 30 min.
3. When the cells had reached a desired level of confluency of 80% in a T75 flask, the medium was aspirated, and the cells were washed with warm phosphate buffered saline or PBS two times.
4. 2-3 ml fresh warm trypsin (Gibco, Cat No. 25200-056) solution was added to the washed cells. The flask with the cells was transferred to a 37° C. incubator.
5. After 5 minutes, the side of the flask was tapped, and the flask was examined under a microscope for detachment of the cells to the flask. If necessary, the cells were kept in the incubator for an additional 5-10 minutes, with occasional tapping, until lifting was complete.
6. The trypsin reaction was neutralized by transferring 6-9 ml cell culture medium to sterile 15 ml conical tubes, and by centrifuging the cell culture at 300×g for 7 minutes to pellet the cells (supernatant decanted).
7. The cells were resuspended in fresh cell culture medium and the cell counting was performed using a hemocytometer.
8. 100 μl of the resuspended cell culture medium containing ˜5,000 cells were transferred into each well of the sterile 96-well cell culture plate (Corning 3903) and cultured overnight at 37° C. with 5% CO2.
Compound Titration and Treatment
1. All test compounds were dissolved in DMSO (Dimethyl sulfoxide) to create a 20 mM stock.
2. 3 μl of each compound 20 mM stock was mixed with 27 μl DMSO, and the compound solution was further diluted at a titration ratio of 1:3 (20 μl compound solution+40 μl DMSO) till the 10 points end.
3. All culture medium was removed from assay plates filled with HT-29 cell cultures. The cells were then washed with 1 PBS, and resuspended in fresh, FBS-free McCOY's 5A medium containing a cocktail of TNF-α (10 ng/ml), a SMAC mimetic compound (6 μM) and Z-VAD-fluoromethylketone or zVAD-FMK (10 μM) to stimulate the HT-29 cells to increase RIP1 kinase levels and necroptosis.
4. 0.5 μL of the diluted compound solution was added to the corresponding 96-well assay plates.
5. The assay plates were incubated for 20 hours at 37° C. with 5% CO2.
1. The CellTiter-Glo® Luminescent Cell Viability Assay was employed to detect the ATP levels of viable HT-29 cells.
2. The CellTiter-Glo® buffer and the lyophilized substrate were equilibrated to room temperature prior to use.
3. The CellTiter-Glo® substrate was resuspended with CellTiter-Glo® buffer, then mixed by gently vortexing to obtain a homogeneous solution.
4. 20 μl the enzyme/substrate mixture was transferred by multi-channel pipetting into 96-well assay plates.
5. The assay plates were placed on an orbital shaker and the contents were shaken for 3 minutes to induce cell lysis.
6. The assay plates were incubated at room temperature for 10 minutes to stabilize the luminescent signal.
7. The luminescence signals were read and recorded with EnVision.
8. The geometric mean EC50 values were calculated from 10 points response dose with duplicates. In

Q: For `COc1nc(OC)c(-c2nc(N3CCN(C(=O)N4N=CC[C@H]4c4cc(F)cc(F)c4)CC3)ncc2F)c(OC)n1` [Compound 49, (S)-(5-(3,5-difluorophenyl)-4,5-dihydro-1H-pyrazol-1-yl)(4-(5-fluoro-2′,4′,6′-trimethoxy-[4,5′-bipyrimidin]-2-yl)piperazin-1-yl)methanone], which EC50 is on record?
A: 0.1 to 100 nM

Q: For `Cc1nn(CC(N)=O)cc1-c1nc(N2CCN(C(=O)N3N=CC[C@H]3c3cc(F)cc(C#N)c3)CC2)ncc1F` [Compound 82], which EC50 is on record?
A: 0.1 to 100 nM

Q: For `Cc1nn(CC2CCOCC2)c(C)c1-c1nc(N2CCN(C(=O)N3N=CC[C@H]3c3cc(F)cc(F)c3)CC2)ncc1F` [Compound 122, (S)-(5-(3,5-difluorophenyl)-4,5-dihydro-1H-pyrazol-1-yl)(4-(4-(3,5-dimethyl-1-((tetrahydro-2H-pyran-4-yl)methyl)-1H-pyrazol-4-yl)-5-fluoropyrimidin-2-yl)piperazin-1-yl)methanone], which EC50 is on record?
A: 0.1 to 100 nM

Q: With `N#Cc1cc(F)cc([C@@H]2CC=NN2C(=O)N2CCN(c3ncc(F)c(-c4ccn(CC(N)=O)n4)n3)CC2)c1` [Compound 76, (S)-2-(3-(2-(4-(5-(3-cyano-5-fluorophenyl)-4,5-dihydro-1H-pyrazole-1-carbonyl)piperazin-1-yl)-5-fluoropyrimidin-4-yl)-1H-pyrazol-1-yl)acetamide] as the molecule, how does the EC50 read?
A: 0.1 to 100 nM

Q: `Cn1ncc(-c2nc(N3CCN(C(=O)N4N=CC[C@H]4c4cc(F)cc(C#N)c4)CC3)ncc2F)n1` [Compound 42] was tested. Which EC50 did it give?
A: 0.1 to 100 nM

Same assay, conditions: Homo sapiens; HT-29 cells, TNF-α 10 ng/ml + SMAC mimetic 6 μM + zVAD-FMK 10 μM, 20 hours; geometric mean, 10 points in duplicate; read-out: EC50 (Cell activity; Necrosis/Necroptosis Inhibitory Activity, Compounds 143-323)

Q: How did the EC50 turn out when `Cc1nc(C)n(-c2nc(N3CCN(C(=O)N4N=CC[C@@H]4c4cnc(C)s4)CC3)ncc2F)n1` [Compound 239, (R)-(4-(4-(3,5-dimethyl-1H-1,2,4-triazol-1-yl)-5-fluoropyrimidinyl)piperazin-1-yl)(5-(2-methylthiazol-5-yl)-4,5-dihydro-1H-pyrazol-1-yl)methanone] was run?
A: 1000 to 10000 nM

Q: With `Cc1nnc(-c2nc(N3CCN(C(=O)N4N=CC[C@H]4c4cncc(F)c4)CC3)ccc2F)s1` [Compound 173, (S)-(4-(5-fluoro-6-(5-methyl-1,3,4-thiadiazol-2-yl)pyridin-2-yl)piperazin-1-yl)(5-(5-fluoropyridin-3-yl)-4,5-dihydro-1H-pyrazol-1-yl)methanone] as the molecule, how does the EC50 read?
A: 0.1 to 100 nM

Q: With `Cc1cnn(C)c1-c1ccc(F)c(N2CCN(C(=O)N3N=CCC3c3ccccn3)CC2)n1` (stereo not drawn) [Compound 297, (4-(6-(1,4-dimethyl-1H-pyrazol-5-yl)-3-fluoropyridin-2-yl)piperazin-1-yl)(5-(pyridin-2-yl)-4,5-dihydro-1H-pyrazol-1-yl)methanone] as the molecule, how does the EC50 read?
A: 0.1 to 100 nM

Q: `Cc1nc(C(N)=O)nn1-c1nc(N2CCN(C(=O)N3N=CC[C@H]3c3cncc(F)c3)CC2)ncc1F` [Compound 253, (S)-1-(5-fluoro-2-(4-(5-(5-fluoropyridin-3-yl)-4,5-dihydro-1H-pyrazole-1-carbonyl)piperazin-1-yl)pyrimidin-4-yl)-5-methyl-1H-1,2,4-triazole-3-carboxamide] was tested. Which EC50 did it give?
A: 0.1 to 100 nM

Q: `Cc1nn(-c2ccnc(N3CCN(C(=O)N4N=CC[C@H]4c4cncc(F)c4)CC3)n2)c(C)c1C(N)=O` [Compound 285, (S)-1-(2-(4-(5-(5-fluoropyridin-3-yl)-4,5-dihydro-1H-pyrazole-1-carbonyl)piperazin-1-yl)pyrimidin-4-yl)-3,5-dimethyl-1H-pyrazole-4-carboxamide] was tested. Which EC50 did it give?
A: 0.1 to 100 nM

Q: How did the EC50 turn out when `Cc1nnc(-c2nc(N3CCN(C(=O)N4N=CC[C@H]4c4cc(F)cc(C#N)c4)CC3)ccc2F)s1` [Compound 172, (S)-3-fluoro-5-(1-(4-(5-fluoro-6-(5-methyl-1,3,4-thiadiazol-2-yl)pyridin-2-yl)piperazine-1-carbonyl)-4,5-dihydro-1H-pyrazol-5-yl)benzonitrile] was run?
A: 0.1 to 100 nM

Q: For `Cc1nc(C(=O)O)nn1-c1nc(N2CCN(C(=O)N3N=CC[C@H]3c3cc(F)cc(C#N)c3)CC2)ncc1F` [Compound 190], which EC50 is on record?
A: 1000 to 10000 nM

Q: For `Cc1[nH]nc(CO)c1-c1nc(N2CCN(C(=O)N3N=CC[C@H]3c3cc(F)cc(C#N)c3)CC2)ncc1F` [Compound 163, (S)-3-fluoro-5-(1-(4-(5-fluoro-4-(3-(hydroxymethyl)-5-methyl-1H-pyrazol-4-yl)pyrimidin-2-yl)piperazine-1-carbonyl)-4,5-dihydro-1H-pyrazol-5-yl)benzonitrile], which EC50 is on record?
A: 0.1 to 100 nM

Q: Which EC50 does the source give for `Cc1nc(C)n(-c2nc(N3CCN(C(=O)N4N=CC[C@H]4c4cncc(F)c4)CC3)c(F)cc2F)n1` [Compound 234, (S)-(4-(6-(3,5-dimethyl-1H-1,2,4-triazol-1-yl)-3,5-difluoropyridin-2-yl)piperazin-1-yl)(5-(5-fluoropyridin-3-yl)-4,5-dihydro-1H-pyrazol-1-yl)methanone] here?
A: 0.1 to 100 nM

Q: `Cc1csc(C2CC=NN2C(=O)N2CCN(c3nc(-c4c(C)cnn4C)ccc3F)CC2)n1` (stereo not drawn) [Compound 299, (4-(6-(1,4-dimethyl-1H-pyrazol-5-yl)-3-fluoropyridin-2-yl)piperazinyl)(5-(4-methylthiazol-2-yl)-4,5-dihydro-1H-pyrazol-1-yl)methanone] was tested. Which EC50 did it give?
A: 0.1 to 100 nM

Q: With `Cc1ncn(-c2nc(N3CCN(C(=O)N4N=CC[C@H]4c4ccccc4)CC3)ncc2F)n1` [Compound 309, (S)-(4-(5-fluoro-4-(3-methyl-1H-1,2,4-triazol-1-yl)pyrimidin-2-yl)piperazin-1-yl)(5-phenyl-4,5-dihydro-1H-pyrazol-1-yl)methanone] as the molecule, how does the EC50 read?
A: 0.1 to 100 nM

Q: With `Cc1nc(C)n(-c2nc(N3CCN(C(=O)N4N=CC[C@@H]4c4ncc(C)s4)CC3)ncc2F)n1` [Compound 242, (R)-(4-(4-(3,5-dimethyl-1H-1,2,4-triazol-1-yl)-5-fluoropyrimidinyl)piperazin-1-yl)(5-(5-methylthiazol-2-yl)-4,5-dihydro-1H-pyrazol-1-yl)methanone] as the molecule, how does the EC50 read?
A: 0.1 to 100 nM

Q: How did the EC50 turn out when `Cc1cnn(C)c1-c1ncc(F)c(N2CCN(C(=O)N3N=CC[C@H]3c3cc(F)cc(C#N)c3)CC2)n1` [Compound 268, (S)-3-(1-(4-(2-(1,4-dimethyl-1H-pyrazol-5-yl)-5-fluoropyrimidin-4-yl)piperazine-1-carbonyl)-4,5-dihydro-1H-pyrazol-5-yl)-5-fluorobenzonitrile] was run?
A: 0.1 to 100 nM

Q: Which EC50 does the source give for `Cc1nc(C)n(-c2ncc(F)c(N3CCN(C(=O)N4N=CC[C@H]4c4cc(F)cc(F)c4)CC3)n2)n1` [Compound 257, (S)-(5-(3,5-difluorophenyl)-4,5-dihydro-1H-pyrazol-1-yl)(4-(2-(3,5-dimethyl-1H-1,2,4-triazol-1-yl)-5-fluoropyrimidin-4-yl)piperazin-1-yl)methanone] here?
A: 0.1 to 100 nM

Q: Which EC50 does the source give for `Cc1nc(C)n(-c2nc(N3CCN(C(=O)N4N=CC[C@H]4c4cc(F)cc(C#N)c4)CC3)c(F)cc2F)n1` [Compound 233, (S)-3-(1-(4-(6-(3,5-dimethyl-1H-1,2,4-triazol-1-yl)-3,5-difluoropyridin-2-yl)piperazine-1-carbonyl)-4,5-dihydro-1H-pyrazol-5-yl)-5-fluorobenzonitrile] here?
A: 0.1 to 100 nM

Q: For `Cc1cnn(C)c1-c1ncc(F)c(N2CCN(C(=O)N3N=CCC3c3ncccc3Cl)CC2)n1` (stereo not drawn) [Compound 261, (5-(3-chloropyridin-2-yl)-4,5-dihydro-1H-pyrazol-1-yl)(4-(2-(1,4-dimethyl-1H-pyrazol-5-yl)-5-fluoropyrimidin-4-yl)piperazin-1-yl)methanone], which EC50 is on record?
A: 0.1 to 100 nM

Source: patent publication US12454529B2, “Piperazine cyclic ureas” (SIRONAX LTD., priority 2020, dated 2025)
